Measured values published in ChEMBL document CHEMBL1157513, “Enhanced anti-influenza A virus activity of (-)-epigallocatechin-3-O-gallate fatty acid monoester derivatives: effect of alkyl chain length” (Bioorg Med Chem Lett, 2008).

Legend:
[1] = Selectivity, ratio of CC50 for dog MDCK cells to EC50 for Influenza (A/PR8/34(H1N1))
[2] = test system: Influenza A virus; assay: Antiviral activity against Influenza A/PR8/34(H1N1)) in dog MDCK cells; assay type: functional, organism-based; settings: A/Puerto Rico/8/1934(H1N1)
[3] = test system: Influenza A virus; assay: Antiviral activity against Influenza (A/PR8/34(H1N1)); assay type: functional, organism-based; settings: A/Puerto Rico/8/1934(H1N1)
[4] = Cytotoxicity against MDCK cells by MTT assay; assay type: cell-based, Canis lupus familiaris; settings: dog
[5] = Selectivity, ratio of CC50 for dog MDCK cells to EC50 for Influenza (A/PR8/34(H1N1)) in MDCK cells

SMILES | Ratio CC50/EC50 [1] | EC50 [2] | EC50 [3] | CC50 [4] | Ratio CC50/EC50 [5]
O=C(O[C@@H]1Cc2c(O)cc(O)cc2O[C@@H]1c1cc(O)c(O)c(O)c1)c1cc(O)c(O)c(O)c1 [EPIGALOCATECHIN GALLATE] | 703 | 94.6 µM | 0.391 µM | 275 µM | 2.91
CC(=O)Oc1cc(OC(C)=O)c2c(c1)O[C@H](c1cc(OC(C)=O)c(OC(C)=O)c(OC(C)=O)c1)[C@H](OC(=O)c1cc(OC(C)=O)c(OC(C)=O)c(OC(C)=O)c1)C2 |  | 77 µM | 8.49 µM |  | 
